From patent US20250017846A1, “TOPICAL ANALGESICS” (THE REGENTS OF THE UNIVERSITY OF CALIFORNIA, priority 2023, published 2025)

Key:
Format in all cases: in vivo, rat
[1] = system: carrageenan-induced hyperalgesia in rats; experiment: Carrageenan-induced hyperalgesia, mechanical nociceptive threshold after topical administration; conditions: male rats; carrageenan i.d.; 30 min later topical indomethacin 1 μg/μl with protamine 2 μg/μl, 30 μL; P<0.0001
Procedure: Male rats were treated with carrageenan (0.1% in 1 μg/5 μL) intradermally (i.d.), into the dorsum of the hind paw. Thirty minutes after the carrageenan administration, when hyperalgesia was established, animals received indomethacin combined with protamine or protamine alone, each in a volume of 30 μL, topically on the dorsum of one hind paw, at the site of the i.d. injection. Protamine was used at a concentration of 2 μg/μl and indomethacin was used at a concentration of 1 μg/μl. Mechanical nociceptive threshold was evaluated before carrageenan administration, and again 30 and 90 minutes after. […] Two-way repeated measures ANOVA, F(2.14)=40.46, P<0.0001. Bonferroni's multiple comparison post-hoc test. Data shown as mean±SEM; n=3 paws, per group.

[2] = system: rats with chemotherapy-induced painful peripheral neuropathy (CIPN); experiment: Oxaliplatin-induced hyperalgesia (CIPN), mechanical nociceptive threshold after topical administration; conditions: oxaliplatin 2 mg/kg i.v. day 0, day 14 topical morphine 0.1 μg/μl with protamine 2 μg/μl, 30 μL on dorsum of hind paw, 30 and 60 min, P<0.0001
Procedure: Female rats received oxaliplatin (2 mg/kg, i.v.) on day 0. On day 14, at which time oxaliplatin-induced hyperalgesia was established, morphine combined with protamine or protamine alone (dissolved in distillated water-dH20) or morphine (using saline as a vehicle), each in a volume of 30 μL, was administered topically on the dorsum of one hind paw, at the site of nociceptive threshold testing. Protamine was used at a concentration of 2 μg/μl and morphine was used at a concentration of 0.1 μg/μl. Mechanical nociceptive threshold was evaluated before and 14 days after oxaliplatin administration, and again 30 and 60 minutes after topical drug administration. […] Two-way repeated measures ANOVA, F(6.18)=26.85, P<0.0001. Bonferroni's multiple comparison post-hoc test. n=3 per group.
Male rats received oxaliplatin (2 mg/kg, i.v.) on day 0. On day 14, at which time oxaliplatin-induced hyperalgesia was established, morphine combined with protamine or protamine alone, each in a volume of 30 μL, was administered topically on the dorsum of one hind paw, at the site of nociceptive threshold testing. Protamine was used at a concentration of 2 μg/μl and morphine was used at a concentration of 0.1 μg/μl. Mechanical nociceptive threshold was evaluated before and 14 days after oxaliplatin administration, and again 30 and 60 minutes after topical administration. […]

[3] = system: PGE2 hyperalgesia in rats; experiment: PGE2-induced hyperalgesia, mechanical nociceptive threshold after topical administration; conditions: male rats; PGE2 100 ng/5 μL i.d.; 10 min later topical morphine 0.1 μg/μl with protamine 2 μg/μl, 30 μL; 30 and 60 min; P=0.0366
Procedure: Male rats received PGE2 (100 ng/5 μL, intradermally, i.d.), on the dorsum of the hind paw followed, 10 minutes later, by morphine combined with protamine or protamine alone (dissolved in distillated water-dH20) or morphine (using saline as a vehicle), each in a volume of 30 μL, was administered topically on the dorsum of one hind paw, at the site of the i.d. PGE2 injection. Protamine was used at a concentration of 2 μg/μl and morphine was used at a concentration of 0.1 μg/μl. Mechanical nociceptive threshold was evaluated before intradermal PGE2 and again 30 and 60 min after topical administration. […] Two-way repeated measures ANOVA, F(2.8)=4.25, *P=0.0366. Bonferroni's multiple comparison post-hoc test. Data shown as mean±SEM; n=3 paws, per group.

Row | SMILES | effect on carrageenan-induced hyperalgesia (mechanical nociceptive threshold) [1] | effect on oxaliplatin-induced hyperalgesia (mechanical nociceptive threshold) ([2]; female rats) | effect on oxaliplatin-induced hyperalgesia (mechanical nociceptive threshold) ([2]; male rats) | effect on PGE2-hyperalgesia (mechanical nociceptive threshold) [3]
1 | COc1ccc2c(c1)c(CC(=O)O)c(C)n2C(=O)c1ccc(Cl)cc1 [indomethacin] | attenuated carrageenan-induced hyperalgesia | – | – | –
2 | CN1CC[C@]23c4c5ccc(O)c4O[C@H]2[C@@H](O)C=C[C@H]3[C@H]1C5 [morphine] | – | attenuated oxaliplatin-induced hyperalgesia | attenuated oxaliplatin-induced hyperalgesia | significant attenuation of PGE2-hyperalgesia
